Peptide text beside a SMILES is read from it.
Legend:
HDAC2 = target: T1, HDAC2 (Homo sapiens, UniProt Q92769); assay: HDAC2 inhibition, full IC50 measurement (Reaction Biology; fluorogenic p53 peptide RHKK(Ac)AMC); format: biochemical
T1 construct: purchased Reaction Biology Corporation (assay run by the CRO)
Method: (§1) The assay was performed using 50 μM fluorogenic peptide from p53 residues 379-382 [RHKK(Ac)AMC] in a base reaction buffer of 50 mM Tris-HCl at pH 8.0, 137 mM NaCl, 2.7 mM KCl, 1 mM MgCl2, and freshly added 1 mg/ml BSA and 1% DMSO. Peptides were first dissolved in DMSO and then added to the reaction mixture with the enzyme using acoustic technique, enough to reach the desired concentration for that assay point. Peptide concentrations were calculated based on mass of lyophilized peptide and its molecular weight. The substrate was then added and incubated for 1 hour at 30 °C in a sealed container. After the incubation, developer was added to stop the reaction and develop color. Kinetic measurements were then performed for 20 min with Envision with 5 min intervals (Ex/Em = 360/460 nm). The endpoint after plateau was taken for IC50 measurement.
(§2) In cases where duplicate measures are used, average data is reported in the main text or Supplementary Tables.

HDAC6 = target: T2, HDAC6 (Homo sapiens, UniProt Q9UBN7); assay: HDAC6 inhibition, full IC50 measurement (Reaction Biology; fluorogenic p53 peptide RHKK(Ac)AMC); format: biochemical
T2 construct: purchased Reaction Biology Corporation (assay run by the CRO)
T2 sequence (Q9UBN7 1-1215): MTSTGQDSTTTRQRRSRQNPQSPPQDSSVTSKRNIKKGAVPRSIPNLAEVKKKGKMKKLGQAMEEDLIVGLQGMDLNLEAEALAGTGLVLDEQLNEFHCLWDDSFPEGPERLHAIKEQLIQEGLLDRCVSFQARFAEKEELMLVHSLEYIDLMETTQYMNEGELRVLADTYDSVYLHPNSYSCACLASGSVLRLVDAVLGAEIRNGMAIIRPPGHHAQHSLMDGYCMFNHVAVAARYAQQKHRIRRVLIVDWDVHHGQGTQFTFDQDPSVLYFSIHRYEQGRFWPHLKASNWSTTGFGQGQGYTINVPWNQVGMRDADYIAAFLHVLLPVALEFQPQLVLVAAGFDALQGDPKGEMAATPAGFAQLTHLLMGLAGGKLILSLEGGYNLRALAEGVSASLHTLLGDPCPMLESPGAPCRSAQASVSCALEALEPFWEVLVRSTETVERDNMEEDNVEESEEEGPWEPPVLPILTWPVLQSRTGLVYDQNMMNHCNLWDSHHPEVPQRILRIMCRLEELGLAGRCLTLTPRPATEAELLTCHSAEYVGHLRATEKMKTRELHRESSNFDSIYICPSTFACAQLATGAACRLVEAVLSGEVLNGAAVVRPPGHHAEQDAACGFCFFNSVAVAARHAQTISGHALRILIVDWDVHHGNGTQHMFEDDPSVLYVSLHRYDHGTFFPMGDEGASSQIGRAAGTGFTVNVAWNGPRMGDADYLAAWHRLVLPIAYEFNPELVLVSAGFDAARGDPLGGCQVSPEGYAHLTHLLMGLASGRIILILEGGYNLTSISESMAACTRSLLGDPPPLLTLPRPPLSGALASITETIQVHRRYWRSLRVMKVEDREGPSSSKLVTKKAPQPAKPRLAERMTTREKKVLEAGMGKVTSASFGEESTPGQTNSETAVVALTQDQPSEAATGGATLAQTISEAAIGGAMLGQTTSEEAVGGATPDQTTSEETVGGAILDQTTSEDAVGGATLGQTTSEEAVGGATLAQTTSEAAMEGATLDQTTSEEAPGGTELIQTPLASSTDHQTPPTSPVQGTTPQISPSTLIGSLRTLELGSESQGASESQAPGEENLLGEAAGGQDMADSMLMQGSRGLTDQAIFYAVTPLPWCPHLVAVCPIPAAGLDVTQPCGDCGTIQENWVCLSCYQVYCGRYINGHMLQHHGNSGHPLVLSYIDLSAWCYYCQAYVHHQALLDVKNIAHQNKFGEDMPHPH
Method: as §1, §2

T1 sequence (Q92769 whole entry): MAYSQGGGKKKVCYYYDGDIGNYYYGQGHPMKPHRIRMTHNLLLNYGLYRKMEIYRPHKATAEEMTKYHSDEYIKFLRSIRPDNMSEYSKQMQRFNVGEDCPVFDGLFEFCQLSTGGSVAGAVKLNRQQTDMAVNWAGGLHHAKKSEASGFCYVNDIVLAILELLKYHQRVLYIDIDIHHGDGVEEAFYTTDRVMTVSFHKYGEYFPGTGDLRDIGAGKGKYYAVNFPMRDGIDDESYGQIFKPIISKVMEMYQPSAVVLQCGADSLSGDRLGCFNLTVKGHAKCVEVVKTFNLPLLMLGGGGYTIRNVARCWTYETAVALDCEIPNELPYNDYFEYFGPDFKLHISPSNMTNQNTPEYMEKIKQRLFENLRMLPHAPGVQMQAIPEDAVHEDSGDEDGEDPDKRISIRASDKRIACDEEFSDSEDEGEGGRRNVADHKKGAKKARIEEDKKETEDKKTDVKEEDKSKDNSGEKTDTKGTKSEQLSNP

SMILES: CCCC[C@H]1NC(=O)[C@H](Cc2ccccc2)NC(=O)[C@H](CCCCCS)NC(=O)[C@@H](CO)NC(=O)[C@H](CC(=O)O)NC(=O)[C@@H](CO)NC(=O)[C@@H](C)NC(=O)[C@H](CCCCN)NC1=O [des4.3.1.1, SHA-Phe-dNle-Lys-dAla-dSer-Asp-dSer] (HELM PEPTIDE1{D.[dS].[O=C([C@H](CCCCCS)N[*:1])[*:2]].F.[CCCC[C@@H](N[*:1])C(=O)[*:2]].K.[dA].[dS]}$PEPTIDE1,PEPTIDE1,1:R1-8:R2$$$V2.0)
- HDAC2 activity raw data (signal) (HDAC2; Conc. 1.00E-05 M, t1): 1283086
- HDAC2 activity raw data (signal) (HDAC2; Conc. 1.00E-05 M, t2): 1486401
- HDAC2 activity raw data (signal) (HDAC2; Conc. 1.11E-06 M, t1): 1660902
- HDAC2 activity raw data (signal) (HDAC2; Conc. 1.11E-06 M, t2): 1799195
- HDAC2 activity raw data (signal) (HDAC2; Conc. 1.23E-07 M, t1): 1764651
- HDAC2 activity raw data (signal) (HDAC2; Conc. 1.23E-07 M, t2): 1879798
- HDAC2 activity raw data (signal) (HDAC2; Conc. 1.37E-08 M, t1): 1818162
- HDAC2 activity raw data (signal) (HDAC2; Conc. 1.37E-08 M, t2): 1980324
- HDAC2 activity raw data (signal) (HDAC2; Conc. 1.52E-09 M, t1): 1787655
- HDAC2 activity raw data (signal) (HDAC2; Conc. 1.52E-09 M, t2): 1860263
- HDAC2 activity raw data (signal) (HDAC2; Conc. 3.33E-06 M, t1): 1631295
- HDAC2 activity raw data (signal) (HDAC2; Conc. 3.33E-06 M, t2): 1725891
- HDAC2 activity raw data (signal) (HDAC2; Conc. 3.70E-07 M, t1): 1679365
- HDAC2 activity raw data (signal) (HDAC2; Conc. 3.70E-07 M, t2): 1920676
- HDAC2 activity raw data (signal) (HDAC2; Conc. 4.12E-08 M, t1): 1853084
- HDAC2 activity raw data (signal) (HDAC2; Conc. 4.12E-08 M, t2): 2007168
- HDAC2 activity raw data (signal) (HDAC2; Conc. 4.57E-09 M, t1): 1817065
- HDAC2 activity raw data (signal) (HDAC2; Conc. 4.57E-09 M, t2): 1855125
- HDAC2 activity raw data (signal) (HDAC2; Conc. 5.08E-10 M, t1): 1872757
- HDAC2 activity raw data (signal) (HDAC2; Conc. 5.08E-10 M, t2): 1875796
- 6-Selectivity: fold potency for HDAC6 over HDAC2 (HDAC6): 31.25 fold
- HDAC6 activity raw data (signal) (HDAC6; Conc. 1.00E-05 M, t1): 121881
- HDAC6 activity raw data (signal) (HDAC6; Conc. 1.00E-05 M, t2): 130414
- HDAC6 activity raw data (signal) (HDAC6; Conc. 1.11E-06 M, t1): 580651
- HDAC6 activity raw data (signal) (HDAC6; Conc. 1.11E-06 M, t2): 615445
- HDAC6 activity raw data (signal) (HDAC6; Conc. 1.23E-07 M, t1): 1294999
- HDAC6 activity raw data (signal) (HDAC6; Conc. 1.23E-07 M, t2): 1440536
- HDAC6 activity raw data (signal) (HDAC6; Conc. 1.37E-08 M, t1): 1520011
- HDAC6 activity raw data (signal) (HDAC6; Conc. 1.37E-08 M, t2): 1756812
- HDAC6 activity raw data (signal) (HDAC6; Conc. 1.52E-09 M, t1): 1628369
- HDAC6 activity raw data (signal) (HDAC6; Conc. 1.52E-09 M, t2): 1677368
- HDAC6 activity raw data (signal) (HDAC6; Conc. 3.33E-06 M, t1): 268413
- HDAC6 activity raw data (signal) (HDAC6; Conc. 3.33E-06 M, t2): 332099
- HDAC6 activity raw data (signal) (HDAC6; Conc. 3.70E-07 M, t1): 971918
- HDAC6 activity raw data (signal) (HDAC6; Conc. 3.70E-07 M, t2): 981413
- HDAC6 activity raw data (signal) (HDAC6; Conc. 4.12E-08 M, t1): 1459081
- HDAC6 activity raw data (signal) (HDAC6; Conc. 4.12E-08 M, t2): 1648611
- HDAC6 activity raw data (signal) (HDAC6; Conc. 4.57E-09 M, t1): 1570327
- HDAC6 activity raw data (signal) (HDAC6; Conc. 4.57E-09 M, t2): 1728944
- HDAC6 activity raw data (signal) (HDAC6; Conc. 5.08E-10 M, t1): 1620579
- HDAC6 activity raw data (signal) (HDAC6; Conc. 5.08E-10 M, t2): 1733616
